Data on eleven compounds can be found in article PMC12024912, “Druggability Studies of Benzene Sulfonamide Substituted Diarylamide (E3) as a Novel Diuretic” (Biomedicines, 2025).

Bounds are passed on as bounds.

On the set-up of series [1]: method as in PMID 35458649. The settings on record: 25a, comparison value; cited from earlier work.
Series [2] concerns the target T1, UT-B (Mus musculus, UniProt Q8VHL0).
T1 construct: endogenous in cells; host or cells: erythrocytes from wild-type C57BL/6 mice
T1 sequence (Q8VHL0 1-384): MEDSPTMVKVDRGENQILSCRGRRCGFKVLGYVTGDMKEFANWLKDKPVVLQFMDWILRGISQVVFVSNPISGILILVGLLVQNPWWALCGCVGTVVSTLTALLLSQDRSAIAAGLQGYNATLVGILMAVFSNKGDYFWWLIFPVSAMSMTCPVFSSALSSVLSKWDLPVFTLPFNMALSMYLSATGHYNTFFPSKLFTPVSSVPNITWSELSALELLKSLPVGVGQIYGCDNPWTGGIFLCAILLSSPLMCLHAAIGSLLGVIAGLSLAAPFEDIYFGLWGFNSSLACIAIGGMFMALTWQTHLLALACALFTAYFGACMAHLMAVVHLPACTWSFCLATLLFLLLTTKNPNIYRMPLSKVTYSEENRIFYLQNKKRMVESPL
In words: Erythrocyte lysis assay for UT-B inhibition, mouse erythrocytes. The series is classed as cell-based. The settings on record: erythrocyte lysis model; mouse; n = 3, means; read-out: IC50 (μM) Mouse. As for the experimental part: (§1) The erythrocyte lysis assay was modified from a method described previously. Erythrocytes obtained from veins were diluted to a hematocrit value of 2% in hyperosmolar PBS containing 1.25 mol/L urea and 5 mmol/L glucose and incubated at r.t. for 2 h. Then, 99 μL erythrocyte suspension from a reservoir was added to each well of a 96-well round-bottom microplate, then 1 μL of the testing compound (500, 125, 31.25, 7.81, 1.95, 0.488, 0.122, 0.031, 0.0076 μmol/L dissolved in DMSO) was added to erythrocyte suspension and shook it up with microoscillator for 1 min. Following 5 min incubation, 20 μL erythrocyte suspension was transferred into 96-well black microplates preloaded with 180 μL isotonic PBS (10 mM, urea-free). Erythrocyte lysis was monitored at 710 nm optical density (OD710) for 6 min, with lysis rates calculated using control values from the same plate as Equation (1):Lysis (%) = 100 × (Aneg − Atest)/(Aneg − Apos)(1) where Atest is the absorbance value from the test well, Aneg is from a negative no-lysis control well, and Apos is from a positive full-lysis control.

Series [3] deals with T2, UT-B (Rattus norvegicus, UniProt P97689).
T2 construct: endogenous in cells; host or cells: erythrocytes from male SD rats
T2 sequence (P97689 1-384): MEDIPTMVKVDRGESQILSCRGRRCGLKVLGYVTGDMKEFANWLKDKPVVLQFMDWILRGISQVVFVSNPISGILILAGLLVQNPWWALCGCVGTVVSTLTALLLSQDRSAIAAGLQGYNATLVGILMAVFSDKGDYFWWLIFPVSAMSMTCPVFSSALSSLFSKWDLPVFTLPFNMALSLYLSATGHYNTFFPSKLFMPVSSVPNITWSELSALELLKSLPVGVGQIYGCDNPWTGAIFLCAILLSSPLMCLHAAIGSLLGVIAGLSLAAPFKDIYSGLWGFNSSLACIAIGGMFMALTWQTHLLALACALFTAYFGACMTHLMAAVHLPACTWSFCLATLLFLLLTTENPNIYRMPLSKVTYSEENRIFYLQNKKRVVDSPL
In words: Erythrocyte lysis assay for UT-B inhibition, rat erythrocytes. The series is classed as cell-based. The settings on record: erythrocyte lysis model; rat; n = 3, means; read-out: IC50 (μM) Rat. As for the experimental part: as §1

The test system of a further series is mice. Kind of series: Mouse sperm malformation assay. The settings on record: mice; day 35; E3 2000 mg/kg/day oral for 5 days; CP 50 mg/kg i.p.; vs control. As for the experimental part:
Male mice were randomly divided into three groups: control group (0.5% CMC-Na), E3 2000 mg/kg group, and positive group (50 mg/kg cyclophosphamide (CP), administered via intraperitoneal injection). E3 and the control group were administered once daily by intragastric gavage. All mice received treatment for 5 consecutive days. After the initial dosing period, […], the mice were euthanized, and evaluation of sperm parameters was performed as follows:
Caudal epididymides were dissected into fragments in physiological saline and incubated (37 °C, 5% CO2, 10 min). Spermatozoa were isolated through nylon mesh filtration. Semen parameters were quantified using computer-assisted semen analysis (CASA). Eosin-stained smears (20 μL sperm suspension) were analyzed to examine sperm morphology. […] Sperm shape abnormalities, such as banana, headless, without a hook, amorphous, double-tailed, and fat head, were identified and counted. In addition, the testis was reserved for morphological analysis. The spermatogenesis was graded from 1 to 10 using the Johnsen score.

Series [4] deals with rat hyponatremia model caused by SIADH. In words: Rat hyponatremia model caused by SIADH (dDAVP). The series is classed as in vivo. On the procedure:
The protocol for dDAVP-induced hyponatremia was adapted from a previous study, with tolvaptan chosen as the positive control. Preliminary experiments determined the dose of dDAVP (0.25 ng/h). Under isoflurane anesthesia, a 0.5 μg/mL dDAVP solution was injected subcutaneously using an osmotic minipump (ALZET 2002, Cupertino, CA, USA; 200 μL, low rate of 0.5 μL/h for […]). Rats were housed individually in metabolic cages to collect urine. Before using the pump, they were given 62.5 mL/d 1.0 kcal/mL of liquid food. After pump implantation, the rats received 40 mL of 2.1 kcal/mL of liquid feed daily. The rats were divided into five groups: control group (sham operation), model group (0.5% poloxamer, solvent), 4 mg/kg tolvaptan group, 4 mg/kg E3 group, and 20 mg/kg E3 group. E3 was administered orally every 8 h, while tolvaptan was given intragastrically once daily. At the end of the experiment, the rats were sacrificed.

[5] abbreviates: SIADH rats, E3 4 or 20 mg/kg every 8 h, tolvaptan 4 mg/kg once daily, vs model rats.

For `CC(=O)Nc1ccc(NC(=O)c2ccc(C(C)=O)o2)cc1` [Compound 25a, N-(4-acetamidophenyl)-5-acetylfuran-2-carboxamide], in series [1], the half-life is listed as 2.86 h and the tmax time was 0.25 h.
On to `CCN1CCN(c2ccc(NC(=O)c3ccc(C(C)=O)o3)cc2)CC1` [Compound E1], for which the IC50 on UT-B [2] amounted to 0.86 µM; on UT-B [3], 0.32 µM.
For the compound `CC(=O)c1ccc(C(=O)Nc2ccc(S(=O)(=O)Nc3ccc(OCCN4CCOCC4)cc3)cc2)o1` [Compound E8], the IC50 was 2.55 µM on UT-B [2] and 0.77 µM at UT-B [3].
For `CC(=O)c1ccc(C(=O)Nc2ccc(NS(=O)(=O)c3ccccc3)cc2)o1` [Compound E5], the half-inhibitory concentration (IC50) at UT-B [2] turned out to be 0.23 µM; at UT-B [3], 0.06 µM.
As to `CC(=O)c1ccc(C(=O)Nc2ccc(NS(=O)(=O)c3ccccc3)c(O)c2)o1` [Compound E6], the figures for the IC50 at UT-B [2] and at UT-B [3] were 0.18 µM and 0.05 µM, respectively.
`CC(=O)c1ccc(C(=O)Nc2ccccc2NS(=O)(=O)c2ccccc2)o1` [Compound E4]: the IC50 on UT-B [2] is over 10 µM; on UT-B [3], 6.46 µM.
Consider `O=P1(N(CCCl)CCCl)NCCCO1` (stereo not drawn) [cyclophosphamide (CP), cyclophosphamide, reference compound], for which, in the series with mice, the “testicular and epididymal indices, sperm motility, abnormal morphology, sperm counts, Johnsen score” value is “caused abnormalities”.
As for `CC(=O)c1ccc(C(=O)Nc2ccc(S(=O)(=O)Nc3ccccc3)cc2)o1` [Compound E7], the concentration for half-maximal inhibition (IC50) on UT-B [2] is 0.23 µM; at UT-B [3], 0.09 µM.
For `CC(=O)c1ccc(C(=O)Nc2ccc(S(=O)(=O)Nc3ccc(OCCCN4CCOCC4)cc3)cc2)o1` [Compound E9], in that order: 4.07 µM and 1.75 µM.
Take `CC(=O)c1ccc(C(=O)Nc2ccc(C(=O)NCCN(C)C)cc2)o1` [Compound E2]: the IC50 on UT-B [2] is 2.41 µM; at UT-B [3], 0.4 µM.
Consider `Cc1ccccc1C(=O)Nc1ccc(C(=O)N2CCCC(O)c3cc(Cl)ccc32)c(C)c1` (stereo not drawn) [tolvaptan, reference compound], for which the “hyponatremia in SIADH rats” value in series [4] (E3 4 or 20 mg/kg orally every 8 h, tolvaptan 4 mg/kg once daily, vs model) is listed as “significantly alleviated”. Besides, in series [4] (setting [5]), the serum osmolality entry is recorded as “significantly increased” and the serum sodium concentration result is on record as “significantly increased”. Besides, the blood urea levels entry in series [4] (SIADH rats, between experimental groups before and after treatment) is recorded as “no significant difference”. For the same compound, the “H&E staining of kidney and liver” value in series [4] (SIADH rats, except dilatation of collecting ducts) is on record as “normal tissue structures”.
